Assay results published in ChEMBL document CHEMBL1201862, “PubChem BioAssay data set” (2004).
Activity calls are given as the source filed them.

Columns and labels:
Vero [1] = test: cells; type: functional, cell-based; settings: Chlorocebus sabaeus
Vero [2] = test: cells; type: functional; settings: Chlorocebus sabaeus
CAAX prenyl protease 1 = CAAX prenyl protease 1 (Saccharomyces cerevisiae S288c, UniProt P47154); test: yeast CAAX protease Ste24 inhibition – biochemical, S. cerevisiae, plate reader, cherry-pick, dose response (AID 488815)
CAAX prenyl protease 1, sequence (P47154 whole entry): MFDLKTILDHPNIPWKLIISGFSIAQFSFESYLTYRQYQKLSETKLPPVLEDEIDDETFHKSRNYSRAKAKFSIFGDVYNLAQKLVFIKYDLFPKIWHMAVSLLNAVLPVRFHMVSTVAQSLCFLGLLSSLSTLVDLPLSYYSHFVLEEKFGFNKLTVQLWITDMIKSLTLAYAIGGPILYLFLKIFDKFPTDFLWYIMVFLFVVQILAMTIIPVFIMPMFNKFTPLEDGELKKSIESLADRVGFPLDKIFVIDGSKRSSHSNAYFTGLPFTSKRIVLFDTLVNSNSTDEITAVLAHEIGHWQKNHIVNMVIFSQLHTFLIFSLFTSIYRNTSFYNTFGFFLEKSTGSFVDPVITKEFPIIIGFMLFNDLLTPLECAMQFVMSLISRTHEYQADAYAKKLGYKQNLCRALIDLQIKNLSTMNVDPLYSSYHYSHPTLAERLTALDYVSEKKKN

[3] = biological target: T1, E3 ubiquitin-protein ligase XIAP (Homo sapiens, UniProt P98170); test: Counter Screen using XIAP-Bir3 for Chemical Antagonists of Bir1/2 domains of IAP-family anti-apoptotic proteins. [Related pubchem assays (depositor defined):AID1018, AID1449, AID1514, AID1638, AID1749, AID1750, AID488957, AID488963]
T1 sequence (P98170 whole entry): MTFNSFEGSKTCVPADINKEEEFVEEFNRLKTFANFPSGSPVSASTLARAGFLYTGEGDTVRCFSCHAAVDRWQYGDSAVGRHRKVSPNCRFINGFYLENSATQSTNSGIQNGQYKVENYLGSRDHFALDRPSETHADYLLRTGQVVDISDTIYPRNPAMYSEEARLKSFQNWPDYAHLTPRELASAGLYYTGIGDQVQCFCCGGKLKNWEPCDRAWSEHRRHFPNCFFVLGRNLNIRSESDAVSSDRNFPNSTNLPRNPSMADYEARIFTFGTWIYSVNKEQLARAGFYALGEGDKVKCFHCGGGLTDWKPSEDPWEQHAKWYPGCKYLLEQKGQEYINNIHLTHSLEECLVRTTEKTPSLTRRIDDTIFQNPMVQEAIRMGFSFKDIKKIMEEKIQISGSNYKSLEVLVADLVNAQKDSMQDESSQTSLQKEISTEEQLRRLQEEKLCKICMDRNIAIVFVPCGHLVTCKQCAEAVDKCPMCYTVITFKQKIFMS

[4] = biological target: T1, E3 ubiquitin-protein ligase XIAP; test: small molecules displacing peptide from XIAP – biochemical, IAP family, fluorescence polarization (AID 1018); type: functional
[5] = viability of PTEN-deleted HCT116 cells – cell-based, HCT116 PTEN knockout, dose response (AID 1047); type: functional;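 also: HCT116 colon tumor cells with PTEN knocked out; cells exposed to compound for 60 hours before readout; potency for loss of cell viability measured by luminescence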
[6] = viability of HCT116 lacking mutant beta-catenin – cell-based, human colon tumor, dose response (AID 1045); type: functional;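 also: HCT116 colon tumor cells with beta catenin knocked out; cells exposed to compound for 60 hours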
[7] = biological target: Induced myeloid leukemia cell differentiation protein Mcl-1 (Homo sapiens, UniProt Q07820); type: functional
Induced myeloid leukemia cell differentiation protein Mcl-1, sequence (Q07820 whole entry): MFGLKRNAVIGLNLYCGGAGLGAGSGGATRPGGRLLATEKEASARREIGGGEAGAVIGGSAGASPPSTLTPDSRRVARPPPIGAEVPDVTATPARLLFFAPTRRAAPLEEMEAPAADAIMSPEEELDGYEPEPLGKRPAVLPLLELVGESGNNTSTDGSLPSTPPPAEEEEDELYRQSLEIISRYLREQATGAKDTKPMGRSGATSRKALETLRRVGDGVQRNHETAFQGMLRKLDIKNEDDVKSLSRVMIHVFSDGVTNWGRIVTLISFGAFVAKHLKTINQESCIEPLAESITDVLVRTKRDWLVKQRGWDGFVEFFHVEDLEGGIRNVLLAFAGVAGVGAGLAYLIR

[8] = luciferase reporter signal suppression in cells – H4 neuroglioma cells, luminescence, dose response (AID 1990); type: functional, cell-based
[9] = luciferase reporter signal reduction – luminescence, H4-C neuroglioblastoma cells, dose response (AID 2458); type: functional, cell-based;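 also: H4 neuroglioblastoma cells stably carrying a luciferase reporter gene fusion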
[10] = biological target: Luciferin 4-monooxygenase (Photinus pyralis, UniProt P08659); test: Counter Screen for Luciferase-based Assay Positives. [Related pubchem assays: 620, 618, 411 ]
Luciferin 4-monooxygenase, sequence (P08659 whole entry): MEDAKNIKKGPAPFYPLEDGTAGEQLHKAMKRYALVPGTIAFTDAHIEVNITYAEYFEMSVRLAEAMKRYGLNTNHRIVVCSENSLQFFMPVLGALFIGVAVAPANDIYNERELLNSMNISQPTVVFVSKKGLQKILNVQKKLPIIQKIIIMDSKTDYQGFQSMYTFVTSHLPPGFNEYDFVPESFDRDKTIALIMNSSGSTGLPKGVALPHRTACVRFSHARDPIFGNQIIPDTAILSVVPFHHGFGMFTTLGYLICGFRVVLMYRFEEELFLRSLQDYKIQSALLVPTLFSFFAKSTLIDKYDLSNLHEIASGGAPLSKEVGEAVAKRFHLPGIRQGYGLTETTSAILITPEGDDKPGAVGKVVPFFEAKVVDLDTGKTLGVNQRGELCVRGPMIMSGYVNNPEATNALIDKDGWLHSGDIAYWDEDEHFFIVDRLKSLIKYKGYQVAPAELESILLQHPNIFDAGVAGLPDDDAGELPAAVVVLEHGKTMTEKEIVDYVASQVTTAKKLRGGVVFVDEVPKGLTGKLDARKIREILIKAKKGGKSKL

[11] = biological target: Glyceraldehyde-3-phosphate dehydrogenase (Homo sapiens, UniProt P04406)
Glyceraldehyde-3-phosphate dehydrogenase, sequence (P04406 whole entry): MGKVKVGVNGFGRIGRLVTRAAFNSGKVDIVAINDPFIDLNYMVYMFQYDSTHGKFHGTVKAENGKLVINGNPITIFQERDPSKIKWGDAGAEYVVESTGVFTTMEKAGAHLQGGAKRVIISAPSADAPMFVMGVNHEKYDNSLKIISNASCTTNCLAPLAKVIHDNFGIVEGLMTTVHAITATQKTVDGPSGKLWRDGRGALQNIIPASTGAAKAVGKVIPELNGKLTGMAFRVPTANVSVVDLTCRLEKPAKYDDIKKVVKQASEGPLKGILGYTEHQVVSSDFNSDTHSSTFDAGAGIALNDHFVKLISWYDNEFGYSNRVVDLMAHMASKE

cells = type: functional, cell-based
[12] = Luminescence Cell-Based Dose Response HTS to Identify Inhibitors of 5'UTR Stem-Loop Driven Prion Protein mRNA Translation in H4 Neuroglioblastoma Cells. [Related pubchem assays: 1827 (Project Summary), 1813 (Primary HTS)]; type: functional
[13] = alpha-synuclein stem-loop luciferase translation blockers – H4 neuroglioma cells, luminescence, confirmation (AID 1988); type: functional, cell-based
HT-1080 = test: HT1080 cell viability loss – fluorescence readout (AID 620); type: functional, cell-based; settings: Homo sapiens
[14] = alpha-synuclein stem-loop translation blockers – luminescence, H4 neuroglioblastoma cells, dose confirmation, confirmation (AID 2454); type: functional, cell-based;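 also: H4 neuroglioblastoma cells carrying an alpha-synuclein 5'UTR luciferase reporter; potency for inhibition of the luciferase signal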
[15] = biological target: Voltage-dependent T-type calcium channel subunit alpha-1H (Homo sapiens, UniProt O95180); type: functional;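 also: channel activity triggered by adding a high calcium stimulation buffer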
Voltage-dependent T-type calcium channel subunit alpha-1H, sequence (O95180 whole entry): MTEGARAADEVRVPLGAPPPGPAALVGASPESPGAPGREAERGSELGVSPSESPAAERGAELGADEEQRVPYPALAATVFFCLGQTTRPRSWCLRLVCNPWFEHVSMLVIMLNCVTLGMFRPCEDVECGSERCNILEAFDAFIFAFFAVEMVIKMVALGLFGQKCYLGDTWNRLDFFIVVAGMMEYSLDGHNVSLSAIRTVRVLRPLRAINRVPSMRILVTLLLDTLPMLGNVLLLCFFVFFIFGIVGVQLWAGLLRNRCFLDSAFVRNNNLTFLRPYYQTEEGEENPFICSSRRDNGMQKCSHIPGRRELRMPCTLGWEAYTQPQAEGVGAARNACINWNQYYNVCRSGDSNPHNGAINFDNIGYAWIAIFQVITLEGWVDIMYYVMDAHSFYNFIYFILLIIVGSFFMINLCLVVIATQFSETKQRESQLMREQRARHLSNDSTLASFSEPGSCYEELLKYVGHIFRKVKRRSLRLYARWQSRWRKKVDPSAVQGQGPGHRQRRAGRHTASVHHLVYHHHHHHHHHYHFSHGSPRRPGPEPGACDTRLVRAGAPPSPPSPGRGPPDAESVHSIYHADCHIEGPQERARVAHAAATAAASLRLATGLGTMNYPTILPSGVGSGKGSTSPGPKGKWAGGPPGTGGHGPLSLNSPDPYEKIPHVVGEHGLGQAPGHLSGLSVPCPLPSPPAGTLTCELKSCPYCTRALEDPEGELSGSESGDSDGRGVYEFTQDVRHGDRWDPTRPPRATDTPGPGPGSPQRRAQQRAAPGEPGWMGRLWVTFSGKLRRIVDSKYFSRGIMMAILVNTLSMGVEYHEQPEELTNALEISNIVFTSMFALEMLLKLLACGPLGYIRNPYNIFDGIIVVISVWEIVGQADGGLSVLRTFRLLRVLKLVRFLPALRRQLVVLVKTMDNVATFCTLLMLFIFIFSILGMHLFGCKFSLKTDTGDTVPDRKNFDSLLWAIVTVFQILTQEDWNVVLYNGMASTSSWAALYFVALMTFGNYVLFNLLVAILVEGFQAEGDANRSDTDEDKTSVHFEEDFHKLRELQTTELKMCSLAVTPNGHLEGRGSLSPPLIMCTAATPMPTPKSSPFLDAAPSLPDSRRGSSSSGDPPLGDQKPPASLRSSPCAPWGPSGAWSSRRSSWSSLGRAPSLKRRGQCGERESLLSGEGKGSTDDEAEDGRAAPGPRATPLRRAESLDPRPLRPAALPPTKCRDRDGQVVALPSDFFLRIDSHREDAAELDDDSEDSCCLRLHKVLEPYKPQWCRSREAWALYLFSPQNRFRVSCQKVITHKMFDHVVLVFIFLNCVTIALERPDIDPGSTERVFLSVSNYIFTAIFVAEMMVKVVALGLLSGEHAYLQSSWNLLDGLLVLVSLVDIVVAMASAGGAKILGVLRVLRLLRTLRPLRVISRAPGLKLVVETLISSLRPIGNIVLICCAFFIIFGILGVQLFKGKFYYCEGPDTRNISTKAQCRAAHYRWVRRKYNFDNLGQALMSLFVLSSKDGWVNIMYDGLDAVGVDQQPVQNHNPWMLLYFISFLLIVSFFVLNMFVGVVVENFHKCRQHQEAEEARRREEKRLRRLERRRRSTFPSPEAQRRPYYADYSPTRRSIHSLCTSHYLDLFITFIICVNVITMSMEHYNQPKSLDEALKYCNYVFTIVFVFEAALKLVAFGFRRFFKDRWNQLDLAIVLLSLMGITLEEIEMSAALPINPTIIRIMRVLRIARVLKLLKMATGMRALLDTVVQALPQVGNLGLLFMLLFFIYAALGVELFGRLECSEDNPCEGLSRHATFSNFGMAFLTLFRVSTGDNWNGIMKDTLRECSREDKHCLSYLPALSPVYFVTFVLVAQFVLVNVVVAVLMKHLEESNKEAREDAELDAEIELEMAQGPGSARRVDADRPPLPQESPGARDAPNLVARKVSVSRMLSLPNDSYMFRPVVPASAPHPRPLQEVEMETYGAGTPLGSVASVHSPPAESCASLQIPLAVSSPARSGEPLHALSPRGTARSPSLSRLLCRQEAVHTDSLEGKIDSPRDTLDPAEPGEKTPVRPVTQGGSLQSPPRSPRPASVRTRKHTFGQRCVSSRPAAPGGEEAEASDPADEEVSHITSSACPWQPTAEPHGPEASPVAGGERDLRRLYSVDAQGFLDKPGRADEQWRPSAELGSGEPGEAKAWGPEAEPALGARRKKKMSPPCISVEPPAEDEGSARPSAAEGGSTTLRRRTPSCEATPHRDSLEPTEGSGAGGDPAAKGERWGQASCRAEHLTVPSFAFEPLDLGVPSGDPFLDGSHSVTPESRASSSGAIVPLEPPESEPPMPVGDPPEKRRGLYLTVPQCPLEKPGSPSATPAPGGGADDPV

Jurkat = test: blockers of NF-kB activation in T cells – Jurkat, luciferase reporter, luminescence, B- and T-cell, dose response (AID 489004); type: functional, cell-based; settings: Homo sapiens;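 also: NF-kB luciferase reporter Jurkat cells stimulated with PMA plus ionomycin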
[16] = HEK-293T viability loss, compound-treated – cell-based, uHTS hits, cytotoxicity control for B/T-cell NF-kB inhibitor project, dose response (AID 489019); type: functional;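 also: IC50 reflects cytotoxicity as loss of cell viability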
[17] = blockers of HIV-1 envelope-mediated cell-cell fusion – cherry-pick, dose response (AID 652057); type: functional, cell-based
[18] = blockers of HIV-1 ZM109 envelope-driven cell-cell fusion – HeLa effector, CEM target cells, luciferase, cherry-pick, dose response (AID 652058); type: functional, cell-based;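 also: luciferase signal from HIV-1 Env mediated cell-cell fusion of effector and target cells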
[19] = off-target signal loss in HeLa-CEM21 co-culture – HeLa F-luc CTL cells, cherry-picked, counter-screen for HIV-1 Env fusion inhibitor project, dose response (AID 652040); type: functional, cell-based;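 also: potency for signal decrease marking cytotoxic or nonspecific inhibition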
[20] = HIV-1 AD8 envelope cell-cell fusion blockers – cherry-pick, dose response (AID 652062); type: functional, cell-based;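 also: luciferase signal from cell-cell fusion driven by HIV-1 clade B AD8 Env; potency is for inhibitors of fusion seen as a drop in luminescence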

O=C(c1cccs1)N(Cc1nc(O)c2c3c(sc2n1)CCCC3)C1CCCC1
IC50 (Vero [1]): 13.4 µM (active) | CC50 (Vero [2]): > 25 µM (active)

CC1=C(C(=O)N2CCOCC2)C(c2ccccc2F)C2=C(O)CC(C)(C)CC2=N1 (stereo unspecified)
AC50 (CAAX prenyl protease 1): 14.6 µM (active)

O=C(/C=C/c1ccco1)Nc1ccc2nn(-c3ccccc3)nc2c1
IC50 [3]: > 100 µM (inactive) | IC50 [4]: > 100 µM (not active) | EC50 [5]: 4.11 µM (active) | EC50 [6]: 4.53 µM (active) | IC50 [7]: 5.43 µM (active)

O=C(O)CCCNC(=O)c1cncc(Br)c1
IC50 [3]: > 100 µM (inactive) | IC50 [4]: > 100 µM (not active)

COC(=O)CCn1nnc(-c2ccc(C(C)C)cc2)n1
EC50 [8]: < 0.1 µM (active) | EC50 [9]: 0.251 µM (active) | EC50 [10]: 2.39 µM (active) | IC50 [11]: > 100 µM (not active) | EC50 (cells): 0.477 µM (active) | EC50 [12]: < 0.1 µM (active) | EC50 [13]: < 0.1 µM (active) | EC50 (HT-1080): > 50 µM (not active) | EC50 [14]: 0.373 µM (active) | EC50 [15]: 16.2 µM (active) | IC50 (Jurkat): < 0.16 µM (active) | IC50 [16]: > 80 µM (inactive) | AC50 [17]: < 0.26 µM (active) | AC50 [18]: < 0.26 µM (active) | AC50 [19]: < 0.26 µM (active) | AC50 [20]: 0.379 µM (active)
